Measured values as given in the PolyMetriX glass transition set.
± gives the standard deviation of the reports.

Structure (SMILES)	glass transition temperature
*CC(*)c1ccc(Cl)cc1C (repeat unit)	145.00 °C
*CC(*)(CC(=O)Oc1ccccc1)C(=O)Oc1ccccc1 (repeat unit)	132.00 °C
*/C=C/c1cccc(/C=C/[Si](C)(CCC(F)(F)F)c2cccc([Si](*)(C)CCC(F)(F)F)c2)c1 (repeat unit)	9.50 °C
*c1ccc(-c2ccc(N(*)c3cc(C(F)(F)F)cc(C(F)(F)F)c3)cc2)cc1 (repeat unit)	209.00 °C
*CC(=O)Nc1ccc(Oc2cccc(Oc3ccc(NC(=O)CN4C(=O)c5ccc(C(c6ccc7c(c6)C(=O)N(*)C7=O)(C(F)(F)F)C(F)(F)F)cc5C4=O)cc3)c2)cc1 (repeat unit)	221.00 °C
*c1cc(C(c2ccc(OCCN(CC)c3ccc(/C=C/C4=CC(=C(C#N)C#N)CC(C)(C)C4)cc3)c(N3C(=O)c4ccc(Oc5ccc6c(c5)C(=O)N(*)C6=O)cc4C3=O)c2)(C(F)(F)F)C(F)(F)F)ccc1OCCN(CC)c1ccc(/C=C/C2=CC(=C(C#N)C#N)CC(C)(C)C2)cc1 (repeat unit)	202.00 °C
*CC1CCC(COP(=O)(/N=N/c2ccc(Oc3ccc(/N=N/P(=O)(O*)OC)cc3)cc2)OC)CC1 (repeat unit)	50.00 °C
*c1ccc(Oc2ccc(N3C(=O)c4ccc(Oc5ccc(Oc6ccc7c(c6)C(=O)N(*)C7=O)cc5)cc4C3=O)cc2)cc1 (repeat unit)	241.00 ± 12 °C
*CCCCCCCCCCOc1ccc(/C=N/c2ccc(-c3ccc(/N=C/c4ccc(O*)cc4O)c(OC)c3)cc2OC)c(O)c1 (repeat unit)	72.00 °C
*CC(*)(C)C(=O)OCCOc1ccc(/N=N/c2ccc([N+](=O)[O-])cc2)cc1 (repeat unit)	112.00 °C
*CC(*)(C)C(=O)OCC1CO1 (repeat unit)	68.50 °C
*Oc1cc(OC(=O)c2ccc(OCCCC)cc2)c(OC(=O)CCCCCC(*)=O)cc1OC(=O)c1ccc(OCCCC)cc1 (repeat unit)	45.00 °C
*C(=O)Nc1ccc(Cc2ccc(N3C(=O)c4ccc(*)cc4C3=O)cc2)cc1 (repeat unit)	279.50 °C
*C(=O)c1ccc2c(c1)C(=O)N(c1ccc(Oc3ccccc3N3C(=O)c4ccc(*)cc4C3=O)cc1)C2=O (repeat unit)	282.50 °C
*c1ccc(Oc2ccc(-c3nc4cc(-c5ccc6nc(*)c(-c7ccccc7)nc6c5)ccc4nc3-c3ccccc3)cc2)cc1 (repeat unit)	292.50 °C
*Oc1ccc(CC(NC(=O)Cc2ccc(OC(=O)CCCCCCC(*)=O)cc2)C(=O)OCCCCCC)cc1 (repeat unit)	27.00 °C
*c1ccc(Oc2ccc(C(C)(C)c3ccc(Oc4ccc(N5C(=O)c6ccc(-c7ccc8c(c7)C(=O)N(*)C8=O)cc6C5=O)cc4)cc3)cc2)cc1 (repeat unit)	237.50 ± 15 °C
*Nc1ccc(Cc2ccc(NC(=O)c3ccc(C(*)=O)cc3)cc2)cc1 (repeat unit)	294.50 °C
*C(=O)Nc1ccc(Oc2ccccc2-c2ccccc2Oc2ccc(NC(=O)c3ccc4c(c3)C(=O)N(c3cccc(N5C(=O)c6ccc(*)cc6C5=O)c3)C4=O)cc2)cc1 (repeat unit)	237.00 °C
*/C=C/C1CC(*)C(C(=O)OCCCCCCOc2ccc(-c3ccc(C#N)cc3)cc2)C1C(=O)OCCCCCCOc1ccc(-c2ccc(C#N)cc2)cc1 (repeat unit)	55.80 °C
*Oc1ccc(OC(=O)c2ccc(C(*)=O)cc2Sc2ccccc2)cc1-c1ccccc1 (repeat unit)	130.00 °C
*CC(*)(C)C(=O)OCCOCCOCC[N+](CC)(CC)CCCCS(=O)(=O)O (repeat unit)	27.00 °C
*CCc1ccc(NC(=O)c2cccc(C(=O)Nc3ccc(CCOC(=O)c4cccc(C(=O)O*)c4)cc3)c2)cc1 (repeat unit)	142.00 °C

Structure (SMILES)	glass transition temperature
*Nc1cc(NC(=O)CCCCCCCCC(*)=O)cc(-c2nnc(-c3ccccn3)o2)c1 (repeat unit)	85.00 °C
*CC(*)(CC(=O)OC)C(=O)O (repeat unit)	159.00 °C
*/C=C/C1CC(*)C(C#N)(CCC)C1 (repeat unit)	108.00 °C
*c1ccc(C(=O)c2ccc(-n3c(=O)c4cc5c(=O)n(*)c(=O)c5cc4c3=O)cc2)cc1 (repeat unit)	424.00 °C
*Oc1ccc(Oc2ccc(NC(=O)c3ccc(Oc4ccc(Oc5ccc(C(=O)Nc6ccc(*)cc6)cc5)cc4C)cc3)cc2)cc1 (repeat unit)	200.00 °C
*c1ccc2oc(-c3cccc(-c4nc5cc(C(*)(C(F)(F)F)C(F)(F)F)ccc5o4)c3)nc2c1 (repeat unit)	301.00 °C
*CCCCCCCCCCCCNC(=O)CCCCCCCCCCCCC(=O)N* (repeat unit)	49.00 °C
*CCN(CCOC(=O)Nc1ccc(C)c(NC(=O)O*)c1)c1ccc(C(C#N)=C(C#N)C#N)cc1 (repeat unit)	125.00 °C
*Oc1ccc(C(c2ccc(OC(*)=O)cc2)C2C3CCC(C3)C2c2ccccc2)cc1 (repeat unit)	196.00 °C
*CC(OC(=O)C(=O)OCC)C(COC(=O)O*)OC(=O)C(=O)OCC (repeat unit)	53.80 °C
*Oc1ccc(S(=O)(=O)c2ccc3cc(S(=O)(=O)c4ccc(Oc5c(C)cc(-c6cc(C)c(*)c(C)c6)cc5C)cc4)ccc3c2)cc1 (repeat unit)	280.00 °C
*C(=O)Nc1ccc(C(c2ccc(NC(=O)c3ccc4c(c3)C(=O)N(c3ccc(-c5ccc(N6C(=O)c7ccc(*)cc7C6=O)c(OC)c5)cc3OC)C4=O)cc2)(C(F)(F)F)C(F)(F)F)cc1 (repeat unit)	250.00 °C
*C(=O)c1ccc2c(c1)C(=O)N(c1cc(N3C(=O)c4ccc(*)cc4C3=O)c(C)cc1C)C2=O (repeat unit)	305.00 °C
*O[Si](*)(C)CCCOc1ccc(C(=O)Oc2ccc(-c3ccc(OC(=O)c4cc(OCC)cc(OCC)c4)cc3)cc2)cc1 (repeat unit)	62.80 °C
*/C=C/C1C/C(=C\C)C(*)C1 (repeat unit)	121.00 °C
*CCN(CCOC(=O)Nc1ccc(C)c(NC(=O)O*)c1)c1ccccc1 (repeat unit)	31.90 °C
*CCCCCCCCCCC(=O)Nc1ccc(Cc2ccc(NC(=O)CCCCCCCCCCN3C(=O)c4ccc(C(=O)c5ccc6c(c5)C(=O)N(*)C6=O)cc4C3=O)cc2)cc1 (repeat unit)	136.00 °C
*C1C2CC(CCCCc3ccccc3)C(C2)C1* (repeat unit)	148.00 °C
*c1ccc(Oc2ccc3ccccc3c2-c2c(Oc3ccc(N4C(=O)c5ccc(NC(=O)Nc6ccc(Oc7ccccc7-c7ccccc7Oc7ccc(NC(=O)Nc8ccc9c(c8)C(=O)N(*)C9=O)cc7)cc6)cc5C4=O)cc3)ccc3ccccc23)cc1 (repeat unit)	285.00 °C
*c1cc(OCCCC)c(*)cc1OCCCC (repeat unit)	37.00 °C
*CC(*)(C)C(=O)OC(COc1ccc(-c2ccccc2)cc1)COc1ccc(-c2ccccc2)cc1 (repeat unit)	85.00 °C
*CC1CCCC(CNC(=O)c2cc(C(=O)N*)cc(C(C)(C)C)c2)C1 (repeat unit)	200.00 °C
